Patent US20260182577A1, “COMBINATIONS TREATMENTS” (Aequor Inc., priority 2020, published 2026)
Where “and” joins values, the source holds several entries; their conditions need not be identical. Equal values may be shown once. Read-outs that look alike come from different tables or passages of the source.

Experiments:
[1] = test system: Staphylococcus aureus MRSA ATCC 33591; experiment: MIC broth microdilution, compounds and antibiotics alone and in combination; format: cell-based; conditions: for Minimum Inhibitory Concentration (MIC) / MIC: alone, or antibiotic with SDBS/DBSA at sub-MIC concentration; for MIC: Staphylococcus aureus, read-out: Minimum Inhibitory Concentration (MIC)
Description: (§1) Antibiotic and Antibiofilm Susceptibility Tests. Minimum inhibitory concentration (MIC) broth microdilution method was performed according to CLSI guidelines (CLSI M07-A10: Methods for Dilution Antimicrobial Susceptibility Tests for Bacteria that Grow
(§2) Aerobically; Approved Standard-Tenth Edition). Minimum bactericidal concentration (MBC) was performed according to CLSI guidelines (CLSI M26-A: Methods for Determining Bactericidal Activity of Antimicrobial Agents; Approved Guideline).
(§3) The antibiotic resistance breakpoints were defined according to the recommendations of the Clinical and Laboratory Standards Institute (CLSI M07-A10: Methods for Dilution Antimicrobial Susceptibility Tests for Bacteria That Grow Aerobically; Approved Standard-Tenth Edition).
Four antibiotics (penicillin G, methicillin, gentamycin, and vancomycin) were tested in combination with SDBS and DBSA, by using a checkerboard methodology against MRSA ATCC 33591 (methicillin-R, gentamicin-R; penicillin-R) and VRSA VRS7 BEI NR-46417 (methicillin-R, gentamicin-R; penicillin-R, vancomycin-R). The combinations were assessed by fractional inhibitory concentration indices (FICIs) and the fold reduction of the MIC (“potentiation factor”) was calculated. In clinical terms, a potentiator enhances the action of a drug. SDBS and […] potentiate methicillin, gentamicin, penicillin, and vancomycin activity against MRSA and VRSA making MRSA and VRSA sensitive to those antibiotics (Table 13).

[2] = test system: Staphylococcus aureus VRSA VRS7 NR-46417; experiment: as above; format: cell-based; conditions: for MIC: Staphylococcus aureus, read-out: Minimum Inhibitory Concentration (MIC)
Description: as §1, §2, §3
Four antibiotics (penicillin G, methicillin, gentamycin, and vancomycin) were tested in combination with SDBS and DBSA, by using a checkerboard methodology against MRSA ATCC 33591 (methicillin-R, gentamicin-R; penicillin-R) and VRSA VRS7 BEI NR-46417 (methicillin-R, gentamicin-R; penicillin-R, vancomycin-R). The combinations were assessed by fractional inhibitory concentration indices (FICIs) and the fold reduction of the MIC (“potentiation factor”) was calculated. In clinical terms, a potentiator enhances the action of a drug.

[3] = test system: P. aeruginosa type 2 mucoid ATCC 33468; experiment: MIC broth microdilution; format: cell-based, Pseudomonas aeruginosa
Description: as §1, §2

[4] = test system: S. aureus ATCC 12600 biofilm; experiment: Biofilm inhibition (MBIC), Syto 9 imaging; format: cell-based, Staphylococcus aureus
Description: (§4) FIGS. 1A and 1B show biofilm inhibition by butyl phosphoramidate (BPA), sodium dodecylbenzenesulfonate (SDBS), and 4-Dodecylbenzenesulfonic acid (DBSA) against Staphylococcus aureus ATCC 12600 and E. coli ATCC 11775, which was determined by (A) measuring total intensity with Ex/Em (nm): 456/541 and (B) staining biofilm with Syto 9 green-fluorescent nucleic acid stain. Biofilm images appear white and gray and images without biofilm appear black. Images of untreated biofilm, sub-MBIC, and MBIC were taken using MiniMax 300 Imaging Cytometer (Molecular Devices).
(§5) Imaging. Biofilm inhibition imaging was determined by growing biofilm in a black-walled optically-clear bottom 96 well plate at a 45° angle to promote biofilm formation prior to imaging. Biofilm was stained with Syto 9 green fluorescent live and dead nucleic acid stain and measuring total intensity with excitation/emission (nm): 456/541. Images of biofilm were taken using MiniMax 300 Imaging Cytometer (Molecular Devices).

[5] = test system: E. coli ATCC 11775 biofilm; experiment: Biofilm inhibition (MBIC), Syto 9 imaging; format: cell-based
Description: as §4, §5

[6] = test system: B. cepacia biofilm; experiment: Biofilm inhibition (MBIC); format: cell-based, Burkholderia cepacia
Description: as §5

[7] = test system: S. aureus ATCC 6358 biofilm; experiment: Minimum biofilm eradicating concentration (MBEC) assay, ASTM E2799-12; format: cell-based, Staphylococcus aureus
Description: Data corresponds to 4.4-Log reduction.
Minimum biofilm eradicating concentration (MBEC) was performed according to the ASTM standard (ASTM E2799-12; Standard Test Method for Testing Disinfectant Efficacy against Pseudomonas aeruginosa Biofilm using the MBEC Assay). Assays were performed in quadruplicates on more than one occasion.

[8] = VRSA VRS7 NR-46417, alone, or antibiotic with SDBS/DBSA at sub-MIC concentration

| Compound | MBIC (inhibition of biofilm formation) [4] [µg/mL] | Resistant / sensitive by CLSI breakpoints [1] | Resistant / sensitive by CLSI breakpoints ([2]; VRSA VRS7 NR-46417) | MIC [1] [mg/L] | MIC [2, 8] [mg/L] | also measured |
| --- | --- | --- | --- | --- | --- | --- |
| butyl phosphoramidate [BPA] | 50 |  |  |  |  | Minimum Inhibitory Concentration (MIC) [1]: 25 mg/L and 12.5 mg/L; Minimum Inhibitory Concentration (MIC) [2, 8]: 25 mg/L and 12.5 mg/L; Minimum Inhibitory Concentration (MIC) [3]: 25 mg/L and 12.5 mg/L; MBIC (inhibition of biofilm formation) [5]: 50 µg/mL; MBIC (inhibition of biofilm formation) [6]: 50 µg/mL; Log reduction of viable cells ([7]; after 10 minutes of exposure): 4.4 Log; removal of biofilm ([7]; after 10 minutes of exposure, colony counting CFU/ml): 99.99%; MBEC (removal of existing biofilm) ([7]; demonstrated by Lonza): < 25 µg/mL |
| gentamicin |  | (R) | (R) |  |  | Minimum Inhibitory Concentration (MIC) [1]: >45.4 mg/L; Minimum Inhibitory Concentration (MIC) [2, 8]: 22.7 mg/L |
| CCCCCCCCCCCCOS(=O)(=O)[O-].[Na+] [SDS, sodium dodecyl sulfate] | 140 |  |  |  |  |  |
| COc1cccc(OC)c1C(=O)N[C@@H]1C(=O)N2[C@@H]1SC(C)(C)[C@@H]2C(=O)O [Methicillin, methicillin] |  | (R) | (R) | > 22.7 | > 22.7 |  |
| CN[C@H](CC(C)C)C(=O)N[C@H]1C(=O)N[C@@H](CC(N)=O)C(=O)N[C@H]2C(=O)N[C@H]3C(=O)N[C@H](C(=O)N[C@H](C(=O)O)c4cc(O)cc(O)c4-c4cc3ccc4O)[C@H](O)c3ccc(c(Cl)c3)Oc3cc2cc(c3O[C@@H]2O[C@H](CO)[C@@H](O)[C@H](O)[C@H]2O[C@H]2C[C@](C)(N)[C@H](O)[C@H](C)O2)Oc2ccc(cc2Cl)[C@H]1O [Vancomycin, vancomycin] |  |  | (R) |  |  | MIC ([2]; VRSA): 22.7 mg/L |
| CCCCCCCCCCCCc1ccc(S(=O)(=O)O)cc1 [DBSA, 4-Dodecylbenzenesulfonic acid] | 100 |  |  | 19 | > 20 |  |
| CC1(C)S[C@@H]2[C@H](NC(=O)Cc3ccccc3)C(=O)N2[C@H]1C(=O)O [Penicillin, penicillin G] |  | (R) | (R) | > 22.7 | 11.3 |  |
